Experimental data from PubChem BioAssay (NCI).
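Dose response: 5 concentrations. Exposure: 48 h. Format: 96-well plates. Endpoint: linear interpolation; highest concentration if not reached. The concentration for 50% growth inhibition is given as GI50. TGI: concentration producing complete growth inhibition.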

Key:
Assay in all cases: DTP human tumour cell line panel, 48 h
HCT-15 colon = test system: HCT-15 colon
SK-MEL-2 melanoma = test system: SK-MEL-2 melanoma
HCC-2998 colon = test system: HCC-2998 colon
SNB-75 CNS = test system: SNB-75 CNS
HT29 colon = test system: HT29 colon
SN12C renal = test system: SN12C renal
HCT-116 colon = test system: HCT-116 colon
BT-549 breast = test system: BT-549 breast
DU-145 prostate = test system: DU-145 prostate
TK-10 renal = test system: TK-10 renal
M14 melanoma = test system: M14 melanoma
IGROV1 ovarian = test system: IGROV1 ovarian
HS 578T breast = test system: HS 578T breast
PC-3 prostate = test system: PC-3 prostate
HL-60(TB) leukemia = test system: HL-60(TB) leukemia
KM12 colon = test system: KM12 colon
NCI-H460 lung = test system: NCI-H460 lung
UACC-257 melanoma = test system: UACC-257 melanoma
UACC-62 melanoma = test system: UACC-62 melanoma
RPMI-8226 leukemia = test system: RPMI-8226 leukemia
COLO 205 colon = test system: COLO 205 colon
NCI-H226 lung = test system: NCI-H226 lung
NCI-H23 lung = test system: NCI-H23 lung
SNB-19 CNS = test system: SNB-19 CNS
NCI-H522 lung = test system: NCI-H522 lung
LOX IMVI melanoma = test system: LOX IMVI melanoma
T-47D breast = test system: T-47D breast
NCI/ADR-RES ovarian = test system: NCI/ADR-RES ovarian
OVCAR-5 ovarian = test system: OVCAR-5 ovarian
CAKI-1 renal = test system: CAKI-1 renal
UO-31 renal = test system: UO-31 renal
SF-268 CNS = test system: SF-268 CNS
MCF7 breast = test system: MCF7 breast
RXF 393 renal = test system: RXF 393 renal
MDA-MB-435 = test system: MDA-MB-435
SW-620 colon = test system: SW-620 colon
SF-539 CNS = test system: SF-539 CNS
SF-295 CNS = test system: SF-295 CNS
K-562 leukemia = test system: K-562 leukemia
SR leukemia = test system: SR leukemia
A498 renal = test system: A498 renal
OVCAR-8 ovarian = test system: OVCAR-8 ovarian
HOP-62 NSCLC = test system: HOP-62 NSCLC
MOLT-4 leukemia = test system: MOLT-4 leukemia
SK-MEL-28 melanoma = test system: SK-MEL-28 melanoma
A549 NSCLC = test system: A549 NSCLC
OVCAR-3 ovarian = test system: OVCAR-3 ovarian
SK-OV-3 ovarian = test system: SK-OV-3 ovarian
CCRF-CEM leukemia = test system: CCRF-CEM leukemia
U251 CNS = test system: U251 CNS
786-0 renal = test system: 786-0 renal
SK-MEL-5 melanoma = test system: SK-MEL-5 melanoma
ACHN renal = test system: ACHN renal
HOP-92 NSCLC = test system: HOP-92 NSCLC
MDA-MB-231 breast = test system: MDA-MB-231 breast
MALME-3M melanoma = test system: MALME-3M melanoma
OVCAR-4 ovarian = test system: OVCAR-4 ovarian
EKVX NSCLC = test system: EKVX NSCLC

`CC(=O)Nc1ccc(S(=O)(=O)N2C(=O)CCC2C(=O)Nc2ccc(Br)cc2)cc1` (centres undefined) gave a GI50 (HCT-15 colon) of 1.72 µM, a TGI (HCT-15 colon) of 13 µM and a GI50 (SK-MEL-2 melanoma) of 4.05 µM. For the same compound, the TGI (SK-MEL-2 melanoma) was 17.8 µM, the GI50 (HCC-2998 colon) was 3.67 µM and the TGI (HCC-2998 colon) was 22.1 µM. For the same compound, the GI50 (SNB-75 CNS) was 1.81 µM, the TGI (SNB-75 CNS) was 6.24 µM and the GI50 (HT29 colon) was 2.76 µM. It also gave a TGI (HT29 colon) of 14.7 µM, a GI50 (SN12C renal) of 2.79 µM and a TGI (SN12C renal) of 36 µM. It also gave a GI50 (HCT-116 colon) of 1.74 µM, a TGI (HCT-116 colon) greater than 100 µM and a GI50 (BT-549 breast) of 1.79 µM. It also gave a TGI (BT-549 breast) of 8.38 µM, a GI50 (DU-145 prostate) of 3.25 µM and a TGI (DU-145 prostate) of 15.8 µM. For the same compound, the GI50 (TK-10 renal) was 4.49 µM, the TGI (TK-10 renal) was 15.4 µM and the GI50 (M14 melanoma) was 2.92 µM. The TGI (M14 melanoma) was 32.8 µM, the GI50 (IGROV1 ovarian) was 2.28 µM and the TGI (IGROV1 ovarian) was 10.9 µM. For the same compound, the GI50 (HS 578T breast) was 3.05 µM, the TGI (HS 578T breast) was 22.5 µM and the GI50 (PC-3 prostate) was 0.984 µM. The TGI (PC-3 prostate) was 12.1 µM, the GI50 (HL-60(TB) leukemia) was 3.1 µM and the TGI (HL-60(TB) leukemia) was 19 µM. For the same compound, the GI50 (KM12 colon) was 1.82 µM, the TGI (KM12 colon) was 13.7 µM and the GI50 (NCI-H460 lung) was 2.63 µM. For the same compound, the TGI (NCI-H460 lung) was 24.5 µM, the GI50 (UACC-257 melanoma) was 2.1 µM and the TGI (UACC-257 melanoma) was 9.5 µM. For the same compound, the GI50 (UACC-62 melanoma) was 0.648 µM, the TGI (UACC-62 melanoma) was 4.54 µM and the GI50 (RPMI-8226 leukemia) was 0.806 µM. It also gave a TGI (RPMI-8226 leukemia) of 4.46 µM, a GI50 (COLO 205 colon) of 3.01 µM and a TGI (COLO 205 colon) of 11.7 µM. It also gave a GI50 (NCI-H226 lung) of 2.26 µM, a TGI (NCI-H226 lung) of 13.2 µM and a GI50 (NCI-H23 lung) of 1.83 µM. For the same compound, the TGI (NCI-H23 lung) was 16.6 µM, the GI50 (SNB-19 CNS) was 2.38 µM and the TGI (SNB-19 CNS) was 20.2 µM. It also gave a GI50 (NCI-H522 lung) of 1.06 µM, a TGI (NCI-H522 lung) of 3.6 µM and a GI50 (LOX IMVI melanoma) of 0.972 µM. It also gave a TGI (LOX IMVI melanoma) of 7.39 µM, a GI50 (T-47D breast) of 0.532 µM and a TGI (T-47D breast) of 5.93 µM. The GI50 (NCI/ADR-RES ovarian) was 2.47 µM, the TGI (NCI/ADR-RES ovarian) was greater than 100 µM and the GI50 (OVCAR-5 ovarian) was 4.86 µM. For the same compound, the TGI (OVCAR-5 ovarian) was 21.7 µM, the GI50 (CAKI-1 renal) was 4.37 µM and the TGI (CAKI-1 renal) was 17.7 µM. For the same compound, the GI50 (UO-31 renal) was 1.38 µM, the TGI (UO-31 renal) was 8.21 µM and the GI50 (SF-268 CNS) was 2.76 µM. For the same compound, the TGI (SF-268 CNS) was 21.9 µM, the GI50 (MCF7 breast) was 1.48 µM and the TGI (MCF7 breast) was 11 µM. For the same compound, the GI50 (RXF 393 renal) was 2.31 µM, the TGI (RXF 393 renal) was 6.28 µM and the GI50 (MDA-MB-435) was 2.72 µM. For the same compound, the TGI (MDA-MB-435) was 14.3 µM, the GI50 (SW-620 colon) was 3.19 µM and the TGI (SW-620 colon) was 27.6 µM. For the same compound, the GI50 (SF-539 CNS) was 2.45 µM, the TGI (SF-539 CNS) was 6.78 µM and the GI50 (SF-295 CNS) was 2.11 µM. For the same compound, the TGI (SF-295 CNS) was 12.1 µM, the GI50 (K-562 leukemia) was 1.95 µM and the TGI (K-562 leukemia) was 10.7 µM. The GI50 (SR leukemia) was 1.41 µM, the TGI (SR leukemia) was 5.38 µM and the GI50 (A498 renal) was 0.435 µM. For the same compound, the TGI (A498 renal) was 4.71 µM, the GI50 (OVCAR-8 ovarian) was 2.6 µM and the TGI (OVCAR-8 ovarian) was 11.9 µM. For the same compound, the GI50 (HOP-62 NSCLC) was 2.4 µM, the TGI (HOP-62 NSCLC) was 11.3 µM and the GI50 (MOLT-4 leukemia) was 2.2 µM. For the same compound, the TGI (MOLT-4 leukemia) was 10.3 µM, the GI50 (SK-MEL-28 melanoma) was 3.49 µM and the TGI (SK-MEL-28 melanoma) was 20.9 µM. The GI50 (A549 NSCLC) was 1.6 µM, the TGI (A549 NSCLC) was 13.4 µM and the GI50 (OVCAR-3 ovarian) was 2.03 µM. The TGI (OVCAR-3 ovarian) was 7.47 µM, the GI50 (SK-OV-3 ovarian) was 3.58 µM and the TGI (SK-OV-3 ovarian) was 16.1 µM. It also gave a GI50 (CCRF-CEM leukemia) of 1.49 µM, a TGI (CCRF-CEM leukemia) of 11 µM and a GI50 (U251 CNS) of 1.89 µM. For the same compound, the TGI (U251 CNS) was 11.3 µM, the GI50 (786-0 renal) was 2.2 µM and the TGI (786-0 renal) was 7.27 µM. For the same compound, the GI50 (SK-MEL-5 melanoma) was 1.56 µM, the TGI (SK-MEL-5 melanoma) was 4.87 µM and the GI50 (ACHN renal) was 2.13 µM. It also gave a TGI (ACHN renal) of 12.2 µM, a GI50 (HOP-92 NSCLC) of 1.13 µM and a TGI (HOP-92 NSCLC) of 5.25 µM. The GI50 (MDA-MB-231 breast) was 1.29 µM, the TGI (MDA-MB-231 breast) was 6.94 µM and the GI50 (MALME-3M melanoma) was 2.64 µM. It also gave a TGI (MALME-3M melanoma) of 9.17 µM.
`CC(C)(C)OC(=O)N(CCCCN(CCCNC(=O)C(F)(F)F)C(=O)OC(C)(C)C)CCCNC(=O)C(F)(F)F` gave a TGI (HCT-15 colon) greater than 100 µM, a TGI (SK-MEL-2 melanoma) greater than 100 µM and a TGI (HCC-2998 colon) greater than 100 µM. The TGI (SNB-75 CNS) was greater than 100 µM, the TGI (HT29 colon) was greater than 100 µM and the TGI (SN12C renal) was greater than 100 µM. For the same compound, the TGI (HCT-116 colon) was greater than 100 µM, the TGI (BT-549 breast) was greater than 100 µM and the TGI (DU-145 prostate) was greater than 100 µM. The TGI (TK-10 renal) was greater than 100 µM, the TGI (OVCAR-4 ovarian) was greater than 100 µM and the TGI (M14 melanoma) was greater than 100 µM. For the same compound, the TGI (IGROV1 ovarian) was greater than 100 µM, the TGI (EKVX NSCLC) was greater than 100 µM and the TGI (HS 578T breast) was greater than 100 µM. It also gave a TGI (PC-3 prostate) greater than 100 µM, a TGI (HL-60(TB) leukemia) greater than 100 µM and a TGI (KM12 colon) greater than 100 µM. It also gave a TGI (NCI-H460 lung) greater than 100 µM, a TGI (UACC-257 melanoma) greater than 100 µM and a TGI (UACC-62 melanoma) greater than 100 µM. For the same compound, the TGI (RPMI-8226 leukemia) was greater than 100 µM, the TGI (COLO 205 colon) was greater than 100 µM and the TGI (NCI-H226 lung) was greater than 100 µM. For the same compound, the TGI (NCI-H23 lung) was greater than 100 µM, the TGI (SNB-19 CNS) was greater than 100 µM and the TGI (NCI-H522 lung) was greater than 100 µM. For the same compound, the TGI (LOX IMVI melanoma) was greater than 100 µM, the TGI (T-47D breast) was greater than 100 µM and the TGI (NCI/ADR-RES ovarian) was greater than 100 µM. For the same compound, the TGI (OVCAR-5 ovarian) was greater than 100 µM, the TGI (CAKI-1 renal) was greater than 100 µM and the TGI (UO-31 renal) was greater than 100 µM. For the same compound, the TGI (SF-268 CNS) was greater than 100 µM, the TGI (MCF7 breast) was greater than 100 µM and the TGI (RXF 393 renal) was greater than 100 µM. The TGI (MDA-MB-435) was greater than 100 µM, the TGI (SW-620 colon) was greater than 100 µM and the TGI (SF-539 CNS) was greater than 100 µM. It also gave a TGI (SF-295 CNS) greater than 100 µM, a TGI (K-562 leukemia) greater than 100 µM and a TGI (SR leukemia) greater than 100 µM. The TGI (A498 renal) was greater than 100 µM, the TGI (OVCAR-8 ovarian) was greater than 100 µM and the TGI (HOP-62 NSCLC) was greater than 100 µM. For the same compound, the TGI (MOLT-4 leukemia) was greater than 100 µM, the TGI (SK-MEL-28 melanoma) was greater than 100 µM and the TGI (A549 NSCLC) was greater than 100 µM. For the same compound, the TGI (OVCAR-3 ovarian) was greater than 100 µM, the TGI (SK-OV-3 ovarian) was greater than 100 µM and the TGI (CCRF-CEM leukemia) was greater than 100 µM. The TGI (U251 CNS) was greater than 100 µM, the TGI (786-0 renal) was greater than 100 µM and the TGI (SK-MEL-5 melanoma) was greater than 100 µM. The TGI (ACHN renal) was greater than 100 µM, the TGI (HOP-92 NSCLC) was greater than 100 µM and the TGI (MDA-MB-231 breast) was greater than 100 µM.
